Laboratory results from ChEMBL document CHEMBL5465560, “Selectivity Literature for EUbOPEN Chemogenomic Library” (2024).

Tests used:
[1] = target: Proto-oncogene tyrosine-protein kinase receptor Ret (Homo sapiens, UniProt P07949); test: Selectivity interaction (Upstate Kinase Profiler service (Millipore)) EUB0000056c RET; conditions: at 1 µM
[2] = target: Vascular endothelial growth factor receptor 1 (Homo sapiens) (UniProt P17948); test: Selectivity interaction (Kinase panel (DSF assay)) EUB0001559a FLT1
[3] = target: T1, Ephrin type-B receptor 1 (Homo sapiens) (UniProt P54762); test: Selectivity interaction (KinomeScan (DiscoverX)) EUB0000595a EPHB1; conditions: at 10 µM
T1 sequence (whole entry): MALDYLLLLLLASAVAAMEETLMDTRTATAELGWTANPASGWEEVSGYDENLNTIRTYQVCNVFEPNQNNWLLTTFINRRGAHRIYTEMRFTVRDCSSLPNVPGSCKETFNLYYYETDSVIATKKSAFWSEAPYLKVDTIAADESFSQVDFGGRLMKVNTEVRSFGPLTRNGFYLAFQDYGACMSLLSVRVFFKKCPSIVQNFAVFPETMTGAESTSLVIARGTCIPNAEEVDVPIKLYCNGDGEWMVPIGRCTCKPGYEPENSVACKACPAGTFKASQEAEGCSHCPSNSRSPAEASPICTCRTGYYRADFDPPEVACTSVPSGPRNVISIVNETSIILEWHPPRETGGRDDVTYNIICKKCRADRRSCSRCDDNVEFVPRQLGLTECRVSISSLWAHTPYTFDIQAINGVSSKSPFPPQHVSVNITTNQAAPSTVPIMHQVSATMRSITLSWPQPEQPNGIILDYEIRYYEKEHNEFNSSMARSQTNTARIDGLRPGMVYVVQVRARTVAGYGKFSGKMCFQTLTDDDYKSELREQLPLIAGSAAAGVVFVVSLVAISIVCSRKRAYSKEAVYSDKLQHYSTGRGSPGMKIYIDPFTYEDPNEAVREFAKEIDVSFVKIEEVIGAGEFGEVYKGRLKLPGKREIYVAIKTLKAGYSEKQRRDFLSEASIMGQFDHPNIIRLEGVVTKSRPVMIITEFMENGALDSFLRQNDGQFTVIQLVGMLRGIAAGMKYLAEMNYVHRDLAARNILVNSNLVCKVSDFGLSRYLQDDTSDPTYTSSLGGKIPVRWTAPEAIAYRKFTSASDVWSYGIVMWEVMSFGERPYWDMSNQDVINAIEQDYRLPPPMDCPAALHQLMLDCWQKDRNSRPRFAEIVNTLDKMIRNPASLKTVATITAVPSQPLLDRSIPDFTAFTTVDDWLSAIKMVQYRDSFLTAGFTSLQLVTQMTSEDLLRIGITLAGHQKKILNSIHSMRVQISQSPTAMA

[4] = target: T2, Dual specificity protein kinase TTK (Homo sapiens) (UniProt P33981); test: Selectivity interaction (KinomeScan (DiscoverX)) EUB0000595a TTK; conditions: at 10 µM
T2 sequence (whole entry): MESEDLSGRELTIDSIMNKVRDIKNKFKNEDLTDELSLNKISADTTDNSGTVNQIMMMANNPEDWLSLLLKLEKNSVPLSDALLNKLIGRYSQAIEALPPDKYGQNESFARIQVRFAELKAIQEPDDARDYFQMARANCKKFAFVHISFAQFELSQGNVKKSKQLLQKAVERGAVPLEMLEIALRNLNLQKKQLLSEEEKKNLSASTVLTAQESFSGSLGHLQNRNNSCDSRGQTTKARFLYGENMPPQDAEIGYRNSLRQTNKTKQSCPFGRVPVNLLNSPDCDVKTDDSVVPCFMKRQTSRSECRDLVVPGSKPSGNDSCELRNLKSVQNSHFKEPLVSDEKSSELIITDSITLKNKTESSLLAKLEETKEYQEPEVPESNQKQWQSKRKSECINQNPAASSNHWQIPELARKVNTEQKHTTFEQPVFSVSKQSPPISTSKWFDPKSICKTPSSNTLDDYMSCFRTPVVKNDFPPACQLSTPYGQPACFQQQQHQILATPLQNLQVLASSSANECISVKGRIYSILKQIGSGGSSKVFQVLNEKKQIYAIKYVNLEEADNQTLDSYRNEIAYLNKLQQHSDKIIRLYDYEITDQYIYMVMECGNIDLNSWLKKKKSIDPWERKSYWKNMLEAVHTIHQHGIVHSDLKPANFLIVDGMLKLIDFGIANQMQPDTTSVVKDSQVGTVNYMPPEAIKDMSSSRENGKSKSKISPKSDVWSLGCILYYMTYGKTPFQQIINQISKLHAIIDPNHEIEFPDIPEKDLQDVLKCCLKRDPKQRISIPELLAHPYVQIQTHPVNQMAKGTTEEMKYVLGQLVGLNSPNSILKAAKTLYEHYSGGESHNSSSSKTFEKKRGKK

[5] = target: T3, Serine/threonine-protein kinase 17B (Homo sapiens) (UniProt O94768); test: Selectivity interaction (KinomeScan (DiscoverX)) EUB0000655a STK17B; conditions: at 10 µM
T3 sequence (whole entry): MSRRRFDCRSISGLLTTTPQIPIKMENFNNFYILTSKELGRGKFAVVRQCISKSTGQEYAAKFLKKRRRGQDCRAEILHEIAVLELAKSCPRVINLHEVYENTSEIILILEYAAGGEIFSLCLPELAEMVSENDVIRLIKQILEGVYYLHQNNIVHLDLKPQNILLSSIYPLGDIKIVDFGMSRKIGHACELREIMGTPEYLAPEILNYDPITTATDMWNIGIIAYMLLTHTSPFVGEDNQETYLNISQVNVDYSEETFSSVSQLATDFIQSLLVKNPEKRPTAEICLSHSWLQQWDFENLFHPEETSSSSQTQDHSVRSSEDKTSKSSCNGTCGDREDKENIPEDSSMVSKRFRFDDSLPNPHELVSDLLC

[6] = test system: Epidermal growth factor receptor (Homo sapiens), P00533 [UNDEFINED MUTATION]; test: Selectivity interaction (KinomeScan (DiscoverX)) EUB0000045b EGFR; conditions: at 1 µM
[7] = target: Serine/threonine-protein kinase 33 (Homo sapiens) (UniProt Q9BYT3); test: Selectivity interaction (KinomeScan (DiscoverX)) EUB0000092b STK33; conditions: at 10 µM
Chain of Serine/threonine-protein kinase 33 (Homo sapiens) (Q9BYT3 whole entry, looked up): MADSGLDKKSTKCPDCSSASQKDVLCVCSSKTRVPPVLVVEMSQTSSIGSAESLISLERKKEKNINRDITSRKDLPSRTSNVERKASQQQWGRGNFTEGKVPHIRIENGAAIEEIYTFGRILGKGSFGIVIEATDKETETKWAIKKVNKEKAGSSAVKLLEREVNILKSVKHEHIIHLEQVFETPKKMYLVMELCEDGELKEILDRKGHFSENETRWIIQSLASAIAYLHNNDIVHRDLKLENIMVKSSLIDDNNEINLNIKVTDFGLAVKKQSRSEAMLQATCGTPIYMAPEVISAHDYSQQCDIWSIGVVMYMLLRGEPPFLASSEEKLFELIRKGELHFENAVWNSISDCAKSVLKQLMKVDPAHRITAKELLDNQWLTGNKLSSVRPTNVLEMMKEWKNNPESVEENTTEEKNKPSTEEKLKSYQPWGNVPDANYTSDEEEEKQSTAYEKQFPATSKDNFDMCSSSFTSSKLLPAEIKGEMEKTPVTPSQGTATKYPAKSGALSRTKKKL

Chain of Proto-oncogene tyrosine-protein kinase receptor Ret (P07949 whole entry): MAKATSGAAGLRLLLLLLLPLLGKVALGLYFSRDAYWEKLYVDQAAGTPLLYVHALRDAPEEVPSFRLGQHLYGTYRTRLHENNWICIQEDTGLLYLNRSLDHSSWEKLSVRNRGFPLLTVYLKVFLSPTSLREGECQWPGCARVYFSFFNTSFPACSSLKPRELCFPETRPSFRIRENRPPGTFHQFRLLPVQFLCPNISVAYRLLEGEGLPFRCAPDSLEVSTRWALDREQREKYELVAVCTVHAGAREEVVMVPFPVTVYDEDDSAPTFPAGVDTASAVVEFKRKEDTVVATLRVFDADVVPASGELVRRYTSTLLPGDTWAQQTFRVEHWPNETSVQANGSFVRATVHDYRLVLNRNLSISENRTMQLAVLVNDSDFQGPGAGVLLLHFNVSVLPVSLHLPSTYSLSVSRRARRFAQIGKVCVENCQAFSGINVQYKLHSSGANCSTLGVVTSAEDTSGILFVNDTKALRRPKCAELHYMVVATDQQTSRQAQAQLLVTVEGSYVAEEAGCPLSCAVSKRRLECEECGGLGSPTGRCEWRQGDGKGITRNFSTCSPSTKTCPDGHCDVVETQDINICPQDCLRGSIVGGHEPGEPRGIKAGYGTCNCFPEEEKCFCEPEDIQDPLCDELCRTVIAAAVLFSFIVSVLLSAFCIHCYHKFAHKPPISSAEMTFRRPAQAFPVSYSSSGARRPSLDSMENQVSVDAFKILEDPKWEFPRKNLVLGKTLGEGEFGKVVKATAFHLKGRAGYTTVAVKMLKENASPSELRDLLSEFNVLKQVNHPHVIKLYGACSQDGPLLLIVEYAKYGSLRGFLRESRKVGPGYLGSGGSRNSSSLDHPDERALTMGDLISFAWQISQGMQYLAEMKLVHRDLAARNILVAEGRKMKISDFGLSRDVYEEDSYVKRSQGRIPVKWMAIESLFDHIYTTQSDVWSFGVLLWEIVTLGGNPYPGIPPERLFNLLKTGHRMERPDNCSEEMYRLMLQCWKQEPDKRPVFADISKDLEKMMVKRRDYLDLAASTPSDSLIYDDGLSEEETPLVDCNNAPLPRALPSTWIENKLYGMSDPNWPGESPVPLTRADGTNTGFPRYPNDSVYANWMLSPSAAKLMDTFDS
Chain of Epidermal growth factor receptor (Homo sapiens), P00533 [UNDEFINED MUTATION] (P00533 whole entry, looked up, change not shown): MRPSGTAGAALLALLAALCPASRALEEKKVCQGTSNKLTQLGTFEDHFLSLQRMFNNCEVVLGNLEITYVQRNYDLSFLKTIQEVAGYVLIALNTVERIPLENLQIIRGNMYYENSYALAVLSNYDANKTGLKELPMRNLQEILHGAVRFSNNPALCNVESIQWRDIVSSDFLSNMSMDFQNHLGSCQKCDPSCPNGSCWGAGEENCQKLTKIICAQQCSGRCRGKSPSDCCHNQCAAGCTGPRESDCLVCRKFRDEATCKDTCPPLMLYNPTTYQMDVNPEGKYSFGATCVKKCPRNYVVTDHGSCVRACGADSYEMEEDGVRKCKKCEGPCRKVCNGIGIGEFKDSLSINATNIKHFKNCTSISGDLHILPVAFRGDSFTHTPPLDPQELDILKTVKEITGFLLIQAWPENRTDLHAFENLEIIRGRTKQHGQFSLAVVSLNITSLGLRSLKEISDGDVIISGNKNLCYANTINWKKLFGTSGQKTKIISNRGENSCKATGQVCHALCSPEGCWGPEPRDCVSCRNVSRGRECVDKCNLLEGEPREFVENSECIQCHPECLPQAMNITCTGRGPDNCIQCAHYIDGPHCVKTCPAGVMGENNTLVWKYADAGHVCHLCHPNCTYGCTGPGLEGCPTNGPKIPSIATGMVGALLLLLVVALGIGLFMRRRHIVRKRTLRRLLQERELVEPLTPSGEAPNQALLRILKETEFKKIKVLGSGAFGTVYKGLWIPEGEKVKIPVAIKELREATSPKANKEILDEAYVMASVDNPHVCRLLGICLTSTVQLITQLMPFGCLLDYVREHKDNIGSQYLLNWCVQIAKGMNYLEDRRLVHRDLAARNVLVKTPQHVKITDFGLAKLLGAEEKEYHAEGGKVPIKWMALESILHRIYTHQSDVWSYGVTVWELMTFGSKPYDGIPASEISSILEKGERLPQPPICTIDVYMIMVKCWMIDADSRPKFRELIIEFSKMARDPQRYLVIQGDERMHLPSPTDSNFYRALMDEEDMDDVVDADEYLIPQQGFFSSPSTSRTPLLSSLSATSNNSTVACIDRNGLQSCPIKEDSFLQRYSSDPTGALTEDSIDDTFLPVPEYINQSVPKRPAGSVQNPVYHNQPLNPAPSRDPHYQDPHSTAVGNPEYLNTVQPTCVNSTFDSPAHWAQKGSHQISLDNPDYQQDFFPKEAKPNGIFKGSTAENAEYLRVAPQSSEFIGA
Chain of Vascular endothelial growth factor receptor 1 (Homo sapiens) (P17948 whole entry): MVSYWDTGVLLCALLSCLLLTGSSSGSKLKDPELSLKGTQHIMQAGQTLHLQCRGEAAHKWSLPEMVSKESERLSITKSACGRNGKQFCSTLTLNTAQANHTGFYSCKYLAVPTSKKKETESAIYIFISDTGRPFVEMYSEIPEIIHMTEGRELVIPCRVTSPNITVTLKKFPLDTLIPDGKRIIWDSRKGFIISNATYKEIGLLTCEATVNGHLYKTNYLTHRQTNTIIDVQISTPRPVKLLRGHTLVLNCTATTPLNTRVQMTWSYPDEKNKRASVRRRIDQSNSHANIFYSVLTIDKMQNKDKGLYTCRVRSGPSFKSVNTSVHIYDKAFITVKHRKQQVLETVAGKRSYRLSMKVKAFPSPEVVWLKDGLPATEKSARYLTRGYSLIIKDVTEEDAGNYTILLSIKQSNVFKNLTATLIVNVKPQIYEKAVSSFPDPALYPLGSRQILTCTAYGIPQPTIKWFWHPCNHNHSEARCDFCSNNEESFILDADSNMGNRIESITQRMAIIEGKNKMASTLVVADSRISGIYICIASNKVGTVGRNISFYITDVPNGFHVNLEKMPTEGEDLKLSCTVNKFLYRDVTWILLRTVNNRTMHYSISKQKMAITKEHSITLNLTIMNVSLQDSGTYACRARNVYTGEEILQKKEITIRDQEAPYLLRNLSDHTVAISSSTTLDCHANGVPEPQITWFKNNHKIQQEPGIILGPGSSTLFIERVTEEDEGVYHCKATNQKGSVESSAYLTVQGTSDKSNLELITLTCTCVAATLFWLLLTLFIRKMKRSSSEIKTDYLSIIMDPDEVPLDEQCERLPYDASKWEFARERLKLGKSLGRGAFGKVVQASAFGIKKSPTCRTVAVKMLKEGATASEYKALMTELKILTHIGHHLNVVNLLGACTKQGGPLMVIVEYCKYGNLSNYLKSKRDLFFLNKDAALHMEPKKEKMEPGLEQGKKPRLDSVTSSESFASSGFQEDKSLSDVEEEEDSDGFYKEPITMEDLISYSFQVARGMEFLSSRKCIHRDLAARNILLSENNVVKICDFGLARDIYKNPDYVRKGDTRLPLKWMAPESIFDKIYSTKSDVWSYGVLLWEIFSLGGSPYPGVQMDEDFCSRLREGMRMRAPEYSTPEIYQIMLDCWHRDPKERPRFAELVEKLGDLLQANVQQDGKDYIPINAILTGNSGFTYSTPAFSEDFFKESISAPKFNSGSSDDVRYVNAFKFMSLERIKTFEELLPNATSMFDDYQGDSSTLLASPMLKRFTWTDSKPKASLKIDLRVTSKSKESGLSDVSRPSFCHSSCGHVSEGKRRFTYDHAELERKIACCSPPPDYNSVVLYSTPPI

Cc1ccc(-c2ccc3c(ccc4sc5c(c43)NC[C@@H](C)NC5=O)n2)cn1
% of inhibition [1]: 46%

CN(C(=O)c1cnn2cccnc12)c1cc2c(cc1N1CCOCC1)C(=O)N(C[C@@H](F)C(C)(C)O)C2
dTM [2]: -0.1 K

COCC(=O)NC/C=C/c1ccc2ncnc(Nc3ccc(Oc4ccc(C)nc4)c(C)c3)c2c1 [CP-724714]
% of control [3]: 100% | % of control [4]: 80%

CN(C)CCOc1ccc(-c2nc(-c3ccncc3)c(-c3ccc4c(c3)CC/C4=N\O)[nH]2)cc1
% of control [5]: 87%

C=CC(=O)Nc1cc(-n2c(=O)ccc3cnc4ccc(-c5ccc(NS(C)(=O)=O)cc5)cc4c32)ccc1C
% of control [6]: 100%

CCC(=O)N1CCN(c2ccc(-n3c(=O)ccc4cnc5ccc(-c6cnc7ccccc7c6)cc5c43)cc2C(F)(F)F)CC1
% of control [7]: 90%
